Measurements from patent US6365137B1, “Skin whitening agents” (Collaborative Laboratories, Inc., priority 1999, dated 2002).

Columns and labels:
[1] = system: Cloudman S91 melanocytes; assay: Cell-based whitening/tanning assay (melanocyte pigmentation assay); conditions: concentration 30 (30μM in method), 5-day treatment, 10nM MSH
Protocol: The melanocyte pigmentation assay measures a test sample's ability to inhibit pigmentation. […] After a 5-day treatment period with each condition tested in triplicate wells, the cells were harvested by washing with PBS and adding 5% trichloroacetic acid to each well. After a 15 minute incubation the acid was aspirated and replaced with 200μl/well of 10% dimethyl sulfoxide/1N sodium hydroxide. The plates were sealed and incubated at 65° C. for 30 minutes. 200μl of each digestion mixture was then transferred to a well of a 96-well microtiter plate and optical densities were read at 405 nm.
An EC50 (the concentration of test sample that inhibits 50% of pigmentation) was calculated for each sample.

[2] = system: mushroom tyrosinase (EC 1.14.18.1); assay: Tyrosinase inhibition assay (test for whitening activity); type: biochemical
Protocol: Tyrosinase activity is determined in reaction mixtures containing […], 30 units/ml of mushroom tyrosinase (EC 1.14.18.1), 75 mM sodium phosphate (pH 7.5), and test sample at the indicated concentrations. The reaction is conducted at room temperature and is monitored by measuring the increase in OD405 as melanin pigment is produced.
Tyrosinase activity was determined by measuring the rate of change of optical density at 490 nm as tyrosine was converted into dopachrome. (Tyrosinase catalyzes the conversion of tyrosine into DOPA quinone, which spontaneously converts into dopachrome.) The rate of tyrosinase activity in the presence of various concentrations of test sample was measured at room temperature in a reaction mixture containing 50 mM sodium phosphate (pH 6.75), 275 μM tyrosine and 25U/ml mushroom tyrosinase (wherein U refers to the units of enzyme activity. Readings were made at one minute intervals for ten minutes and the reaction rate was calculated by linear regression. Each concentration was run in triplicate. Inhibition of tyrosinase activity was expressed as a percentage of the activity measured for the untreated control mixture (no test sample). An EC50 (the concentration of test sample that inhibits 50% of tyrosinase activity) was calculated.

Oc1ccc(O)cc1 [Hydroquinone]
inhibition at 30 µM ([1]; Melanocyte, 120 h, read-out: % Stimulation (+)/ Inhibition (−) of pigmentation): 36.6% | mean (optical density at 405 nm, pigmentation) [1]: 0.801 | % inhibition (tyrosinase) ([2]; concentration 1.25 (M)): 26.7% | mod/min mean (tyrosinase reaction rate) ([2]; concentration 1.25 (M)): 7.95 mod/min | % inhibition (tyrosinase) ([2]; concentration 2.5 (M)): 45.5% | mod/min mean (tyrosinase reaction rate) ([2]; concentration 2.5 (M)): 5.92 mod/min | % inhibition (tyrosinase) ([2]; concentration 10.5 (M)): 75.8% | mod/min mean (tyrosinase reaction rate) ([2]; concentration 10.5 (M)): 2.63 mod/min | % inhibition (tyrosinase) ([2]; concentration 20 (M)): 92.2% | mod/min mean (tyrosinase reaction rate) ([2]; concentration 20 (M)): 0.85 mod/min
